The test system of data set [1] is NTERA-2 cells. The experiment in a line: Sulforhodamine B (SRB) antiproliferative assay. The format is cell-based. As to conditions: Homo sapiens. The method, then: The NTERA-2 cells were cultured using Dulbecco's Modified Eagle's Medium (DMEM), supplemented with 10% fetal bovine serum (FBS), 50 IU/mL penicillin, and 50 μg/mL streptomycin. Cells were incubated at 37°C with 5% CO2 and 95% humidity.
Prior to the SRB assay, NTERA-2 cells were grown in a 75 cm[…] flasks. Upon confluency, cells were trypsinized and seeded into 96-well plates (5 × 10^3 cells/well). After 24 h incubation, cells were treated with various concentrations (3.125, 6.25, 12.5, 25, and 50 μg/mL) of gedunin and retinoic acid (positive control) dissolved in 0.1% dimethyl sulfoxide (DMSO) and incubated for 24, 48, and 72 h. Negative control for the experiment was 0.1% DMSO in DMEM medium. Then the cells were fixed with 20 μL of 50% (trichloroacetic acid) TCA and incubated for further 1 h at 4°C. After incubation, cells were washed five times with tap water and stained with 50 μL of 0.4% (w/v) SRB solution. After 20 min of incubation, SRB solution was poured off and unbound dye was removed by washing five times with 1% acetic acid. Bound SRB dye was then solubilized by adding 100 μL of Tris base solution. The plates were shaken for 1 h and absorbance was read at 540 nm OD.

Data set [2] concerns NTERA-2 cells. The experiment in a line: DNA fragmentation analysis. Format: cell-based, human. To be noted: 48 and 72 h, gedunin 5, 10 and 15 μg/mL. As for the experimental part:
DNA fragmentation analysis was carried out according to previously described methods. NTERA-2 cells (2.5 × 10^4 cells/mL) were grown in cell culture flasks and incubated for 24 h. After incubation, flasks were treated with gedunin dissolved in 0.1% DMSO (5, 10, and 15 μg/mL) and further incubated for 48 and 72 h. Negative control for the experiment was 0.1% DMSO in DMEM medium. At the end of the incubation period, cells were trypsinized and cell pellets were obtained. Cell pellets were then incubated for 60 min at 50°C in a 100 μL of lysis buffer (100 mM Tris–HCl, pH 8, 100 mM NaCl, and 10 mM EDTA). Proteinase K (10 μL, 20 mg/mL) was then added to cell lysates and incubated for 30 min at 50°C. After adding 3 μL of 10 mg/mL RNase, the mixture was incubated for 2 h at 50°C. DNA was extracted in phenol chloroform-isoamyl alcohol and 1 μg of isolated DNA from each sample was subjected to 2.0% of agarose gel electrophoresis and visualized under UV using a gel-doc system (Quantum-ST4 1100/20 M).

Data set [3] has as its system peripheral blood mononuclear cells. Kind of data set: WST-1 cell viability assay. Format: cell-based, human. To be noted: for IC50: Homo sapiens, PBMC, PBMCs, WST-1 assay; for Cytotoxic effect on normal peripheral blood mononuclear cells: WST-1 cell viability assay. The method, then:
Cytotoxic effects of gedunin and positive control (retinoic acid) on normal human cells were evaluated by using human peripheral blood mononuclear cells. Collected blood was diluted with Hank's Buffered Salt Solution (HBSS) and layered onto Histopaque 1077. Blood was then centrifuged at 1000 rpm for 10 min. After centrifugation, opaque interface which contains mononuclear cells was seperated and washed with phosphate buffered saline (PBS). Cells were then counted and cultured (2 × 10^5 cells/mL) in RPMI medium supplemented with 10% fetal bovine serum (FBS), 50 IU/mL penicillin, and 50 μg/mL streptomycin in 24-well plates. Cells were then treated with different concentrations of gedunin and retinoic acid dissolved in 0.1% DMSO (3.125, 6.25, 12.5, 25, and 50 μg/mL) and incubated for 24, 48, and 72 h. Negative control for the experiment was 0.1% DMSO in RPMI medium. WST-1 cell proliferation assay was then carried out according to manufacturer's instructions to determine the cytotoxic effects.
On the technique in general: Tetrazolium assays rely on reduction of a dye to a coloured formazan, in cell work by metabolically active cells.

The subject of another data set is HSF1. The experiment in a line: RT-qPCR gene expression, HSF1. The format is cell-based, human. As to conditions: NTERA-2 cells, 24 h incubation. As for the experimental part:
(§1) NTERA-2 (2.5 × 10^5 cells/mL) cells were cultured in cell culture flasks and treated with gedunin dissolved in 0.1% DMSO (5 and 10 μg/mL) for 24 h. Negative control for the experiment was 0.1% DMSO in DMEM medium. Following incubation, total RNA was extracted with TRIzol® reagent according to the manufacturer's instructions. For reverse transcription, extracted RNA (2 μg) was mixed with 50 ng of random primers and the total volume was made up to 13.5 μL with ultrapure water. Resulting mixture was incubated at 70°C for 5 min and, after incubation, it was kept on ice for 2 min. Complementary DNA (cDNA) was then synthesized by adding 2 μL from the transcription mixture, 5 μL of 5x MMLV-buffer, 5 μL of 10 mM deoxynucleotide mixture, 25 units of RNasin, and 200 units of MMLV-reverse transcriptase in a reaction mixture of 25 μL adjusted by adding ultrapure water and incubated at 37°C for 60 min. Real-time PCR was carried out in Stratagene Mx3000P using a master mix containing SYBR green (MESA Green qPCR Master Mix Plus for SYBR Assay). Primers used for real-time PCR are given in Table 1 and glyceraldehyde-3-phosphate dehydrogenase (GAPDH) was used as the internal housekeeping gene. […] Results of real-time PCR were analysed using the formula 2^−ΔΔCt.
(Quantitative PCR measures a nucleic acid by following its amplification.)

Data set [4] has as its system caspase 3/7 in NTERA-2 cells. Kind of data set: Caspase 3/7 assay. To be noted: 24 h. The format is cell-based, human. The method, then:
NTERA-2 cells (2.5 × 10^4 cells/mL) were cultured in 96-well cell culture plates and incubated for 24 h. After incubation, cells were treated with gedunin dissolved in 0.1% DMSO (2.5, 5, and 10 μg/mL) and incubated for further 24 h. Negative control for the experiment was 0.1% DMSO in DMEM medium. Caspase 3/7 reagent (100 μL) was then added to each well and incubated for 1 h in dark at 37°C. Luminescence of each well was measured by a plate reader.

Data set [5] concerns NTERA-2 cells. Kind of data set: Acridine orange/ethidium bromide (AO/EB) staining. The format is cell-based, human. To be noted: NTERA-2 cells, 2.5, 5 and 10 μg/mL, 24 h. As for the experimental part:
NTERA-2 cells (2.5 × 10^4 cells/mL) were cultured on cell culture treated coverslips and incubated for 24 h. Subsequently, cells were exposed to different concentrations of gedunin dissolved in 0.1% DMSO (2.5, 5, and 10 μg/mL) and incubated for 24 h. Negative control for the experiment was 0.1% DMSO in DMEM medium. After incubation, cells were fixed using 4% formaldehyde in the dark for 10 min. Cells were then washed with PBS and stained with ethidium bromide (100 μg/mL) and acridine orange (100 μg/mL) solutions (1 : 1 v/v). Excess dye was then washed off with PBS and cell morphology was observed using a fluorescence microscope (BX51 TRF, Olympus Corporation, Tokyo, Japan).

Another data set concerns ErbB2. Kind of data set: RT-qPCR gene expression, ErbB2. Format: cell-based, human. As to conditions: NTERA-2 cells, 24 h incubation. The method, then:
as §1

The next data set deals with HSP90. Kind of data set: RT-qPCR gene expression, HSP90. Format: cell-based, human. To be noted: NTERA-2 cells, 5 and 10 μg/mL, 24 h. The method, then:
as §1

The test system of a further data set is survivin. Kind of data set: RT-qPCR gene expression, survivin. Format: cell-based, human. To be noted: NTERA-2 cells, both doses tested, 24 h. As for the experimental part:
as §1

In another data set the test system is AKT. The experiment in a line: RT-qPCR gene expression, AKT. The format is cell-based, human. To be noted: NTERA-2 cells, 24 h incubation. As for the experimental part:
as §1

The next data set relates to Bax. The experiment in a line: RT-qPCR gene expression, Bax. The format is cell-based, human. To be noted: NTERA-2 cells, both doses tested, 24 h. The method, then:
as §1

The test system of a further data set is Cdc37. The experiment in a line: RT-qPCR gene expression, Cdc37. To be noted: NTERA-2 cells, 5 and 10 μg/mL, 24 h. Format: cell-based, human. As for the experimental part:
as §1

The test system of the next data set is p53. The experiment in a line: RT-qPCR gene expression, p53. The format is cell-based, human. To be noted: NTERA-2 cells, 5 and 10 μg/mL, 24 h. The method, then: as §1
Data set [6] concerns NTERA-2 cells. Kind of data set: TUNEL assay. The format is cell-based, human. As to conditions: NTERA-2 cells, 2.5, 5 and 10 μg/mL, 24 h. The method, then:
Terminal deoxynucleotidyl transferase-mediated dUTP-biotin nick-end labeling (TUNEL) staining was carried out to confirm in situ chromatin fragmentation. Cells cultured on coverslips (2.5 × 10^4 cells/mL) were treated with different concentrations of gedunin dissolved in 0.1% DMSO (2.5, 5, and 10 μg/mL) and incubated for 24 h. Negative control for the experiment was 0.1% DMSO in DMEM medium. TUNEL staining was carried out according to manufacturer's instructions. Briefly, cells were fixed with 4% formaldehyde and permeabilized with 0.2% Triton X-100. Equilibration buffer (100 μL) and TdT reaction mix to label DNA were added and incubated for further 60 min in a humidified chamber. Then coverslips were immersed in 2x SSC buffer for 15 min followed by immersing in 0.3% H2O2 for 3 min. Finally, labeled fragments were incubated with streptavidin horseradish peroxidase and visualized after diaminobenzidine (DAB) color development where dark brown spots confirmed apoptosis.

Data set [7] concerns NTERA-2 cells. The experiment in a line: Nitrobluetetrazolium reactive oxygen species (ROS) assay. Format: cell-based, human. As to conditions: 24 h after incubation, 2.5, 5 and 10 μg/mL. The method, then: ROS measurement in gedunin treated NTERA-2 cells was carried out using previously described methods. Cells (2 × 10^3) were cultured in 96-well cell culture plates and incubated for 24 h. After incubation cells were treated with gedunin (2.5, 5, and 10 μg/mL) and incubated for further 24 h. Cells were then incubated with nitrobluetetrazolium (1 mg/mL) for 1 h at 37°C. After the incubation 100 μL of DMSO was added to solubilize blue formazan, plates were shaken for 10 min at room temperature, and the absorbance was read at 620 nm.

[8] abbreviates: NTERA2, 24 h incubation, read-out: IC50 in NTERA-2 cells, 24 h.
[9] abbreviates: NTERA2, 48 h incubation, read-out: IC50 in NTERA-2 cells, 48 h.
Setting [10] is: NTERA2, 72 h incubation, read-out: IC50 in NTERA-2 cells, 72 h.
Setting [11] is: 24 h incubation, read-out: IC50 in peripheral blood mononuclear cells, 24 h.
The mark [12] stands for this setting: 48 h incubation, read-out: IC50 in peripheral blood mononuclear cells, 48 h.
The mark [13] stands for this setting: 72 h incubation, read-out: IC50 in peripheral blood mononuclear cells, 72 h.

From PMC5478822, “In Vitro Anticancer Effect of Gedunin on Human Teratocarcinomal (NTERA-2) Cancer Stem-Like Cells” (BioMed Research International, 2017) come the findings set out here.

Converted amounts (≈) assume the structure as drawn. Read-outs that look alike come from different tables or passages of the source.

With `CC1=C(/C=C/C(C)=C/C=C/C(C)=C/C(=O)O)C(C)(C)CCC1` [Retinoic acid, retinoic acid, reference compound], the IC50 – broadly, the concentration that gives 50% inhibition – in the data set on NTERA-2 cells [1] (setting [8]) was 14.4 µg/mL (≈ 47.8 µM); in the data set on NTERA-2 cells [1] (setting [9]), 9.17 µg/mL (≈ 30.5 µM); with NTERA-2 cells [1] (setting [10]), 6.87 µg/mL (≈ 22.9 µM); in data set [3] (setting [11]), greater than 100 µg/mL; in data set [3] (setting [12]) it was greater than 100 µg/mL; in [3] (setting [13]) it was greater than 100 µg/mL. Moreover, in the data set with NTERA-2 cells [2], the “DNA fragmentation (laddering pattern)” value is “smeared laddering pattern of DNA was observed”.
Regarding `CC(=O)O[C@@H]1C[C@H]2C(C)(C)C(=O)C=C[C@]2(C)[C@H]2CC[C@@]3(C)[C@H](c4ccoc4)OC(=O)[C@H]4O[C@]43[C@@]21C` [Gedunin], in the data set on HSF1, the “Expression of HSF1 (real-time PCR)” value is “Significant downregulation”. Also, the “Fold change in caspase 3/7 activity” value in [4] (2.5 μg/mL) worked out at 1.08 fold; in data set [4] (5 μg/mL) it was 1.2 fold; in data set [4] (10 μg/mL) it was 1.41 fold. Further, the IC50 in the data set with NTERA-2 cells [1] (setting [8]) is 14.6 µg/mL (≈ 30.2 µM); in the data set on NTERA-2 cells [1] (setting [9]), 8.49 µg/mL (≈ 17.6 µM); with NTERA-2 cells [1] (setting [10]), 6.55 µg/mL (≈ 13.6 µM); in data set [3] (setting [11]) it was greater than 100 µg/mL; in [3] (setting [12]), greater than 100 µg/mL; in data set [3] (setting [13]), greater than 100 µg/mL. Also, in the data set with NTERA-2 cells [5], the “Morphological changes after AO/EB staining” value was “morphological changes of apoptosis”. For the same compound, the “Expression of ErbB2 (real-time PCR)” value in the data set on ErbB2 is on record as “Significant downregulation”. Besides, the “Expression of HSP90 (real-time PCR)” value in the data set on HSP90 is “downregulation”. Moreover, in the data set on survivin, the “Expression of survivin (real-time PCR)” value is “downregulation”. Further, in the data set on AKT, the “Expression of AKT (real-time PCR)” value is recorded as “Significant downregulation”. For the same compound, the “Expression of Bax (real-time PCR)” value with Bax is listed as “Upregulation of Bax”. For the same compound, in the data set with Cdc37, the “Expression of Cdc37 (real-time PCR)” value is listed as “downregulation”. Also, the “Expression of p53 (real-time PCR)” value with p53 is recorded as “upregulation of p53”. The TUNEL-positive nuclei result with NTERA-2 cells [6] was “increase in the number of TUNEL-positive nuclei”. Further, in the data set with NTERA-2 cells [2], the “DNA fragmentation (laddering pattern)” value is “smeared laddering pattern of DNA was observed”. Further, the ROS production entry in the data set on NTERA-2 cells [7] is given as “increase in ROS production”. Besides, the “Cytotoxic effect on normal peripheral blood mononuclear cells” value was “minimal effect on PBMCs” in data set [3] and “not significant” in data set [3] (listed as gedunin).
`CC1=CC(=O)C(C(C)C)=CC1=O` [thymoquinone]: the “DNA fragmentation (laddering pattern)” value with NTERA-2 cells [2] is recorded as “smeared laddering pattern of DNA was observed”.
